Laboratory results reported in the kinase profiling compilation of Christmann-Franck et al. (2016).

Tests used:
Assay in all cases: radiometric filter-binding kinase assay
[1] = tested on: AKT2 (human), P31751 [S474D]
[2] = biological target: BTK (human) (UniProt Q06187)
[3] = biological target: CDK2 CCNA2 (human) (UniProt P20248+P24941)
[4] = biological target: CHEK2 (human) (UniProt O96017)
[5] = biological target: CSK (human) (UniProt P41240)
[6] = biological target: CSNK1D (human) (UniProt P48730)
[7] = biological target: EPHA4 (human) (UniProt P54764)
[8] = biological target: EPHB1 (human) (UniProt P54762)
[9] = biological target: EPHB4 (human) (UniProt P54760)
[10] = biological target: FLT1 (human) (UniProt P17948)
[11] = biological target: IKBKB (human) (UniProt O14920)
[12] = biological target: IKBKE (human) (UniProt Q14164)
[13] = biological target: INSRR (human) (UniProt P14616)
[14] = biological target: MAP2K1 (human) (UniProt Q02750)
[15] = biological target: MAPK1 (human) (UniProt P28482)
[16] = biological target: MAPK14 (human) (UniProt Q16539)
[17] = biological target: MAPK15 (human) (UniProt Q8TD08)
[18] = biological target: MAPK3 (human) (UniProt P27361)
[19] = biological target: MAPKAPK3 (human) (UniProt Q16644)
[20] = biological target: MKNK2 (human) (UniProt Q9HBH9)
[21] = biological target: NEK2 (human) (UniProt P51955)
[22] = biological target: NEK6 (human) (UniProt Q9HC98)
[23] = biological target: PAK7 (human) (UniProt Q9P286)
[24] = biological target: PIM2 (human) (UniProt Q9P1W9)
[25] = biological target: PLK1 (human) (UniProt P53350)
[26] = tested on: PRKAA1 or PRKAA2 (rat); details: accession and sequence are those of the human protein
[27] = biological target: PRKACA (human) (UniProt P17612)
[28] = biological target: RIPK2 (human) (UniProt O43353)
[29] = biological target: RPS6KA1 KD1 KD2 (human) (UniProt Q15418)
[30] = biological target: RPS6KA3 KD1 KD2 (human) (UniProt P51812)
[31] = biological target: RPS6KA5 KD1 KD2 (human) (UniProt O75582)
[32] = tested on: RPS6KB1 (human), P23443 [T412E]
[33] = biological target: SRC (human) (UniProt P12931)
[34] = biological target: SYK (human) (UniProt P43405)
[35] = biological target: TTK (human) (UniProt P33981)
Sequence of TTK (human) (P33981 whole entry, looked up): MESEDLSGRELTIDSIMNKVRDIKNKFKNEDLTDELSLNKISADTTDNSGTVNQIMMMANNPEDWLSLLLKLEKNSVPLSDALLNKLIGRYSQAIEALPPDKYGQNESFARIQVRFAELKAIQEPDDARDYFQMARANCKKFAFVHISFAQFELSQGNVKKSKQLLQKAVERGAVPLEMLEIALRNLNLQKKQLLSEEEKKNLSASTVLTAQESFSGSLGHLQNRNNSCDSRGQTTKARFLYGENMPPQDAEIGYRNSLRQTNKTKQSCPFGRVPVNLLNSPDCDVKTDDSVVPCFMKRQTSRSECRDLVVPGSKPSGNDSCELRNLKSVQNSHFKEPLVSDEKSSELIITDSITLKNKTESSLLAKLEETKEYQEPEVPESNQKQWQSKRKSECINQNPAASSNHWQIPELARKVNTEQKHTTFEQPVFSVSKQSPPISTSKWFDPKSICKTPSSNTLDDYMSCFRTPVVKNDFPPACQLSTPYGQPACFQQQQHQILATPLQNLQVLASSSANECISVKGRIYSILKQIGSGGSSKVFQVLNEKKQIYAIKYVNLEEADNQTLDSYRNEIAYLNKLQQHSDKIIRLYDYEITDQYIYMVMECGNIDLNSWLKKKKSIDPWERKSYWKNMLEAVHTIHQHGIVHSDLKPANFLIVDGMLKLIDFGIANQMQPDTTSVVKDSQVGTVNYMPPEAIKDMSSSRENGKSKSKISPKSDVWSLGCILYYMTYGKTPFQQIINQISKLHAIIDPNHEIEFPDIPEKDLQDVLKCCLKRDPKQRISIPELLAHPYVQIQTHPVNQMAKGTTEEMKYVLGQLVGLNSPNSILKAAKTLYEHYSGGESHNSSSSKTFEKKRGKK

Sequence of BTK (human) (Q06187 whole entry, looked up): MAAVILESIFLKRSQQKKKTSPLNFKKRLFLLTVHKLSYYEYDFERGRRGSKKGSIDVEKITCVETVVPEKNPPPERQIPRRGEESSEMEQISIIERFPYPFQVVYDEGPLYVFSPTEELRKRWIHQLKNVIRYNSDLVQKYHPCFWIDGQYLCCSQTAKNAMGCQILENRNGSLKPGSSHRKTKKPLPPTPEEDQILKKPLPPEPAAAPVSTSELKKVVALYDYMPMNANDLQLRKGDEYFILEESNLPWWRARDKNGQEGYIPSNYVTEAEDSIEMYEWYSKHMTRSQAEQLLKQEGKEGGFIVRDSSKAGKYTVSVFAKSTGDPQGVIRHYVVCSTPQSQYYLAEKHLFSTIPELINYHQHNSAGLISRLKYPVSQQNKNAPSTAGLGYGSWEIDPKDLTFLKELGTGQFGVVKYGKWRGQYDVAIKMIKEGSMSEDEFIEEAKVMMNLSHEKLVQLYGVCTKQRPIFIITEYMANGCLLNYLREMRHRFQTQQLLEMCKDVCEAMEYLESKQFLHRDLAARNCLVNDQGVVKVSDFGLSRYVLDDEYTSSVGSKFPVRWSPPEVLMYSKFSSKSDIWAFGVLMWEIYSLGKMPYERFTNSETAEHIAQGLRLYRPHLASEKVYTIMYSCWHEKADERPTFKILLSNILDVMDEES
Sequence of MAPK1 (human) (P28482 whole entry, looked up): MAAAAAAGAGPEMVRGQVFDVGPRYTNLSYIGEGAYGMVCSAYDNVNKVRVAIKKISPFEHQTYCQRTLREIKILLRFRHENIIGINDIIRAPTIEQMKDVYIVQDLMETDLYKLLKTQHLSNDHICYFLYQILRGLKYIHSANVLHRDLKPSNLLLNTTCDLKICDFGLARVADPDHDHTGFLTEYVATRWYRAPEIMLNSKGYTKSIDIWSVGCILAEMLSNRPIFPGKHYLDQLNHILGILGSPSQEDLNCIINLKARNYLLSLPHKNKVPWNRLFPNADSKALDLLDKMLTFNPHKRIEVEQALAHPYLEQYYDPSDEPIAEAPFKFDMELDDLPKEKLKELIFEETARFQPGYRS
Sequence of CSNK1D (human) (P48730 whole entry, looked up): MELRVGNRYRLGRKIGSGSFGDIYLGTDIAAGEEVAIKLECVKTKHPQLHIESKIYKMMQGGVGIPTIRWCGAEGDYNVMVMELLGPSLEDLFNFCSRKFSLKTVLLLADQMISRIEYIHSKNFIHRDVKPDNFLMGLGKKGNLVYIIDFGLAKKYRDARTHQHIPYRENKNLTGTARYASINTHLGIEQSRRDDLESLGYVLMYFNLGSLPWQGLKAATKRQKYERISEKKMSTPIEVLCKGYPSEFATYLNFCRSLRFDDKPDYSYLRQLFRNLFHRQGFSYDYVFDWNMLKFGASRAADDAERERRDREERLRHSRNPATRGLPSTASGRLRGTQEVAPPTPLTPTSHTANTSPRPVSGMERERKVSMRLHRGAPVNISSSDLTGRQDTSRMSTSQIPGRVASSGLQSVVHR
Sequence of MAPKAPK3 (human) (Q16644 whole entry, looked up): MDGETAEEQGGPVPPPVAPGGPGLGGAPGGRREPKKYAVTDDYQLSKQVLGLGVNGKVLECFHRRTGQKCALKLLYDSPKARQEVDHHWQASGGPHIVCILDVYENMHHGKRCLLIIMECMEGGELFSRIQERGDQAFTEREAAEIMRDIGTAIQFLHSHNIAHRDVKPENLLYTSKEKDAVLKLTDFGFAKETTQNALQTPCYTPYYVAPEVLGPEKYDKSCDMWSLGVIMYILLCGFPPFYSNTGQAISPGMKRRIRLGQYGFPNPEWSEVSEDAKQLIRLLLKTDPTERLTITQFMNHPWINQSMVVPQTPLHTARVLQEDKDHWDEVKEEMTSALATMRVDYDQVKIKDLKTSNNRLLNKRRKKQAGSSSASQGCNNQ
Sequence of NEK6 (human) (Q9HC98 whole entry, looked up): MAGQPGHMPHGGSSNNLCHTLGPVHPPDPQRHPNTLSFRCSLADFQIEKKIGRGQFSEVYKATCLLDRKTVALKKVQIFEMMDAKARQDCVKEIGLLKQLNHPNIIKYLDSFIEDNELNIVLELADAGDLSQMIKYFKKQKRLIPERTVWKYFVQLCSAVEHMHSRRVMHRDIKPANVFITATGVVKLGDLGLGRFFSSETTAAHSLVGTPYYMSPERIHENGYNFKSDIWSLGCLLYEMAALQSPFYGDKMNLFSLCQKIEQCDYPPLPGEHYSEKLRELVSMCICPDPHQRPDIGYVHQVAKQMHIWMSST
Sequence of MAPK15 (human) (Q8TD08 whole entry, looked up): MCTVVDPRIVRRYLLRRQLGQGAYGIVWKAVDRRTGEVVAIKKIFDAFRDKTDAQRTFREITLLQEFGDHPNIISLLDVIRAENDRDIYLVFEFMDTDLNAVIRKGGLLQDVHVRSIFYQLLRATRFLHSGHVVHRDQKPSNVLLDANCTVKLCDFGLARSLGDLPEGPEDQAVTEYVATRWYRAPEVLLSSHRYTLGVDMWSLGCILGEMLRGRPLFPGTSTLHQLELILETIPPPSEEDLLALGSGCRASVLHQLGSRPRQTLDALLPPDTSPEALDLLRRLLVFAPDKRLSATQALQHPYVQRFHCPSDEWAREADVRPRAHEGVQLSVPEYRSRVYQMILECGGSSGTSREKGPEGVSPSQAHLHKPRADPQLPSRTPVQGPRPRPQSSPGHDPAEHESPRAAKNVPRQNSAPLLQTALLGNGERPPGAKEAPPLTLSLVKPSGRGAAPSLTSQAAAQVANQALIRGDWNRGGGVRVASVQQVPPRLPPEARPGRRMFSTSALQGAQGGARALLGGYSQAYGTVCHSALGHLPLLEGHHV
Sequence of EPHA4 (human) (P54764 whole entry, looked up): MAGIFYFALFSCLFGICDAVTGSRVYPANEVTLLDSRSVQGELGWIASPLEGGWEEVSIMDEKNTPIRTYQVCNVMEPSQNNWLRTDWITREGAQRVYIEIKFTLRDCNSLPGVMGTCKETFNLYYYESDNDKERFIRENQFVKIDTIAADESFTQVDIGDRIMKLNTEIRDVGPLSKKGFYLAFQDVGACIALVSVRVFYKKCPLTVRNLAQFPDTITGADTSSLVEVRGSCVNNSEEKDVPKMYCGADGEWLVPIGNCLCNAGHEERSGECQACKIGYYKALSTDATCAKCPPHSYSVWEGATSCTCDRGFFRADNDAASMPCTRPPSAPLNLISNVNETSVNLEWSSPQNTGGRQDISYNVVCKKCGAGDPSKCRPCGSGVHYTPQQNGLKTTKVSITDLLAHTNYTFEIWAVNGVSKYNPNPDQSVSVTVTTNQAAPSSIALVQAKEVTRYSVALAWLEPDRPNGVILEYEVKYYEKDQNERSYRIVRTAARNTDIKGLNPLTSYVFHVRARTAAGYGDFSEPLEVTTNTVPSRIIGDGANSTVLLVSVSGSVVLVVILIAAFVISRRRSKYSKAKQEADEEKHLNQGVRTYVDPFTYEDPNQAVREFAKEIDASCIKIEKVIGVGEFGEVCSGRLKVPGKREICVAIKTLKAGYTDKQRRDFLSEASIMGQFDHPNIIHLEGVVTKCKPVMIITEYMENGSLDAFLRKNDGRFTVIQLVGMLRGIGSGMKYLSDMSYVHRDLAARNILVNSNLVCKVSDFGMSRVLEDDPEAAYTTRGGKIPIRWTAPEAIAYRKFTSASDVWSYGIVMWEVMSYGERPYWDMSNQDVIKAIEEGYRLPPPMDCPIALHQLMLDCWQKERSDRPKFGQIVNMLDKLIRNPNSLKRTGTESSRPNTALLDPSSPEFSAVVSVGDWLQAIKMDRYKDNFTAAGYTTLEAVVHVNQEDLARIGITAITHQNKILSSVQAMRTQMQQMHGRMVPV
Sequence of MAPK14 (human) (Q16539 whole entry, looked up): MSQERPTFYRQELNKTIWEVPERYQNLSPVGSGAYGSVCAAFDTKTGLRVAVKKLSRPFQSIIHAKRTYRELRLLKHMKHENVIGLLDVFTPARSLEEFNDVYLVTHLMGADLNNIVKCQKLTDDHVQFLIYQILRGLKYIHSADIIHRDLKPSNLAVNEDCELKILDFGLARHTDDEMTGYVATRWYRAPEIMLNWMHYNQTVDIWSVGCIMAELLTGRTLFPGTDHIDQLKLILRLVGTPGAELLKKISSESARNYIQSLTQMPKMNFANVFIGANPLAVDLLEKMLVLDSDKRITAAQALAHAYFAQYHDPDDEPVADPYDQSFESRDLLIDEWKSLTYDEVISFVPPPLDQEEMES

N#Cc1c(C2CCNCC2)cc(-c2c(O)cccc2OCC2CC2)nc1N
residual activity ([1]; compound 1.0 µM): 85%
residual activity ([1]; compound 10.0 µM): 62%
residual activity ([2]; compound 1.0 µM): 122%
residual activity ([2]; compound 10.0 µM): 58%
residual activity ([3]; compound 1.0 µM): 32%
residual activity ([3]; compound 10.0 µM): 6%
residual activity ([4]; compound 1.0 µM): 60%
residual activity ([4]; compound 10.0 µM): 34%
residual activity ([5]; compound 1.0 µM): 83%
residual activity ([5]; compound 10.0 µM): 74%
residual activity ([6]; compound 1.0 µM): 86%
residual activity ([6]; compound 10.0 µM): 78%
residual activity ([7]; compound 1.0 µM): 107%
residual activity ([7]; compound 10.0 µM): 84%
residual activity ([8]; compound 1.0 µM): 96%
residual activity ([8]; compound 10.0 µM): 100%
residual activity ([9]; compound 1.0 µM): 90%
residual activity ([9]; compound 10.0 µM): 86%
residual activity ([10]; compound 1.0 µM): 101%
residual activity ([10]; compound 10.0 µM): 53%
residual activity ([11]; compound 1.0 µM): 6%
residual activity ([11]; compound 10.0 µM): 4%
residual activity ([12]; compound 1.0 µM): 87%
residual activity ([12]; compound 10.0 µM): 96%
residual activity ([13]; compound 1.0 µM): 117%
residual activity ([13]; compound 10.0 µM): 61%
residual activity ([14]; compound 1.0 µM): 117%
residual activity ([14]; compound 10.0 µM): 51%
residual activity ([15]; compound 1.0 µM): 101%
residual activity ([15]; compound 10.0 µM): 76%
residual activity ([16]; compound 1.0 µM): 102%
residual activity ([16]; compound 10.0 µM): 91%
residual activity ([17]; compound 1.0 µM): 59%
residual activity ([17]; compound 10.0 µM): 9%
residual activity ([18]; compound 1.0 µM): 85%
residual activity ([18]; compound 10.0 µM): 80%
residual activity ([19]; compound 1.0 µM): 87%
residual activity ([19]; compound 10.0 µM): 85%
residual activity ([20]; compound 1.0 µM): 113%
residual activity ([20]; compound 10.0 µM): 89%
residual activity ([21]; compound 1.0 µM): 85%
residual activity ([21]; compound 10.0 µM): 94%
residual activity ([22]; compound 1.0 µM): 99%
residual activity ([22]; compound 10.0 µM): 101%
residual activity ([23]; compound 1.0 µM): 84%
residual activity ([23]; compound 10.0 µM): 75%
residual activity ([24]; compound 1.0 µM): 34%
residual activity ([24]; compound 10.0 µM): 12%
residual activity ([25]; compound 1.0 µM): 83%
residual activity ([25]; compound 10.0 µM): 87%
residual activity ([26]; compound 1.0 µM): 85%
residual activity ([26]; compound 10.0 µM): 50%
residual activity ([27]; compound 1.0 µM): 83%
residual activity ([27]; compound 10.0 µM): 95%
residual activity ([28]; compound 1.0 µM): 80%
residual activity ([28]; compound 10.0 µM): 57%
residual activity ([29]; compound 1.0 µM): 45%
residual activity ([29]; compound 10.0 µM): 6%
residual activity ([30]; compound 1.0 µM): 39%
residual activity ([30]; compound 10.0 µM): 11%
residual activity ([31]; compound 1.0 µM): 105%
residual activity ([31]; compound 10.0 µM): 55%
residual activity ([32]; compound 1.0 µM): 88%
residual activity ([32]; compound 10.0 µM): 53%
residual activity ([33]; compound 1.0 µM): 89%
residual activity ([33]; compound 10.0 µM): 68%
residual activity ([34]; compound 1.0 µM): 88%
residual activity ([34]; compound 10.0 µM): 81%
residual activity ([35]; compound 1.0 µM): 89%
residual activity ([35]; compound 10.0 µM): 66%
